The test system of one assay is MSSA and MRSA strains. Kind of assay: MIC potentiation, groups of strains. In kind it is cell-based, Staphylococcus aureus. Particulars: all 40 tested strains. As for the experimental part:
Potentiation of Activities of/36-Lactam Antibiotics. Compound 4 was evaluated as an adjuvant for β-lactam antibiotics, per design principles.
MICs were determined by the microdilution broth method following the Clinical & Laboratory Standards Institute (CLSI) guidelines. […] Experiments were performed in triplicate in 96-well plates with 5×10^5 CFU·mL^−1 of bacteria. […] The MIC was the concentration for which bacterial growth was not observed.

The next assay addresses BlaR (Staphylococcus aureus, UniProt P18357). Kind of assay: Live-cell fluorescent assay for BlaR inhibition (Venus reporter). In kind it is cell-based, S. aureus NRS144pCN52RI-Venus. Particulars: compound at 100 mg/L^−1; CBAP 10 mg·L^−1; fluorescence after 2 h. The text has this: Live-Cell Fluorescent Assay in Discovery and Mechanism of Action. We conceived of fluorescent constructs in the bla operon, for the purpose of screening (FIG. 2a). We removed the gene for the β-lactamase (blaZ) and put in its place individually the genes for the Green Fluorescent Protein (GFP), Venus (a yellow-fluorescent protein) or mCherry (a red-fluorescent protein) in the template plasmid pCN52. The three plasmids were named pCN52RI, pCN52RI-Venus and pCN52RI-mCherry, respectively. The genes for the fluorescent proteins were transcribed under the promoter of the blaZ gene and were regulated by the proteins BlaR and BlaI, as is the case for the wild-type bla operon.
We transformed separately S. aureus NRS144—a laboratory strain that accepts a foreign gene and harbors neither the bla nor the mec operons—with each of these plasmids. […] When induced, the fluorescent protein is produced and is detected (akin to expression of the resistance genes blaZ or mecA in typical MSSA and MRSA). […] The transformed strains were grown in tryptic soy broth medium for overnight culture and strain maintenance and incubated in cation-adjusted Mueller-Hinton broth medium for inhibitor screening in a 96-well microplate format. The culture without CBAP addition was the negative control. In order to select a desirable reporter construct, we compared the intensity of the fluorescence produced from each construct at the wavelengths given in FIG. 2a using the Cytation-5 multi-mode microplate reader. Among the three constructs, pCN52RI-Venus produced the best fluorescence intensity and pCN52RI-mCherry was the second best (FIG. 4).
(§1) The collection of the 100 compounds from the in-silico search was screened against S. aureus NRS144pCN52RI-Venus. The screening strategy was as follows. Bacteria grown to OD600 of 0.25 were exposed concurrently to CBAP (10 mg·L^−1) and the test compound (100 mg·L^−1). Fluorescence was recorded after two hours of incubation. OD600 values were also recorded to identify compounds with inherent antibacterial activity. Compound 1 (Chart 1) emerged—82% diminished fluorescence as an indication of the extent of BlaR inhibition—as a suitable template for structure elaboration. This effort led to the synthesis of several dozen benzimidazole and imidazole compounds. The progression of the iterative design is depicted in Chart 1 for four compounds, culminating in 4. […] The X-ray structures for the complexes of compounds 2 (non-covalent) and 4 (covalent) with the BlaR sensor domain are shown respectively in FIG. 2b (2.0 Å resolution) and FIG. 2c (1.97 Å resolution). Compound 4 makes a covalent bond with the catalytic Ser389 and creates a network of hydrogen bonds with the BlaR active site (FIG. 2c).
(§2) Fluorescent assay for screening of BlaR potential inhibitors. A 3-mL portion of lysogeny broth (LB) medium was inoculated with NRS144pCN52RI Venus from frozen stocks and grown overnight at 37° C. The overnight culture was then diluted 1:150 fold with fresh LB containing […] of erythromycin and incubated at 37° C. to an OD600 of 0.3, at which point fluorescence was induced by the addition of CBAP to a final concentration of 10 μg·mL^−1. The culture was aliquoted (99 L) into 96-well plate and 1 L of inhibitor solution (1 mg·mL^−1 in DMSO) was added to each well. Negative control (DMSO without CBAP) and positive control (CBAP without inhibitor) were included. The plate was incubated at 30° C. for 2 h with intermittent shaking. Fluorescence and OD600 measurements were taken by a Cytation-5 multimode microplate reader. Percent inhibition of BlaR and bacterial growth were calculated using absorbance unit (AU) and OD600 values of each sample entered into this formula: […]

Assay [1] relates to S. aureus NRS144pCN52RI-Venus. Kind of assay: Bacterial growth inhibition (OD600) in the fluorescent screening assay. The assay is classed as cell-based, Staphylococcus aureus. Particulars: compound at 100 mg/L^−1; OD600 after 2 h. As for the experimental part: as §1, §2
In the next assay the test system is additional MRSA strains. The assay can be described thus: Checkerboard assay. In kind it is cell-based, Staphylococcus aureus. How it is done:
(§3) Synergy with β-Lactams and Time-Kill Assays. […] In this assay, the antibiotics are compared individually and in combination. The fractional inhibitory concentration (FIC) index is calculated. Synergy is defined as an FIC value ≤0.5, indifference as FIC >0.5 to ≤4, and antagonism as FIC >4.
(§4) Checkerboard assay. […] The final inoculum in each well was 5×10^5 CFU·mL^−1, and the result was read after 24-h incubation at 37° C. The fractional inhibitory concentration (FIC) index was calculated for each combination. An FIC index of ≤0.5 is considered synergistic. The experiment was done in triplicates.

In the next assay the test system is strain NRS21. Kind of assay: Checkerboard assay. Particulars: 24-h incubation. In kind it is cell-based, Staphylococcus aureus. As for the experimental part:
as §3, §4

The test system of a further assay is HI049. The assay can be described thus: Checkerboard assay. In kind it is cell-based, Staphylococcus aureus. How it is done: as §3, §4
The next assay has as its system HFH29568. The assay can be described thus: Checkerboard assay. The assay is classed as cell-based, Staphylococcus aureus. As for the experimental part:
as §3, §4

Bounds are passed on as bounds.

Chain of BlaR (P18357 whole entry): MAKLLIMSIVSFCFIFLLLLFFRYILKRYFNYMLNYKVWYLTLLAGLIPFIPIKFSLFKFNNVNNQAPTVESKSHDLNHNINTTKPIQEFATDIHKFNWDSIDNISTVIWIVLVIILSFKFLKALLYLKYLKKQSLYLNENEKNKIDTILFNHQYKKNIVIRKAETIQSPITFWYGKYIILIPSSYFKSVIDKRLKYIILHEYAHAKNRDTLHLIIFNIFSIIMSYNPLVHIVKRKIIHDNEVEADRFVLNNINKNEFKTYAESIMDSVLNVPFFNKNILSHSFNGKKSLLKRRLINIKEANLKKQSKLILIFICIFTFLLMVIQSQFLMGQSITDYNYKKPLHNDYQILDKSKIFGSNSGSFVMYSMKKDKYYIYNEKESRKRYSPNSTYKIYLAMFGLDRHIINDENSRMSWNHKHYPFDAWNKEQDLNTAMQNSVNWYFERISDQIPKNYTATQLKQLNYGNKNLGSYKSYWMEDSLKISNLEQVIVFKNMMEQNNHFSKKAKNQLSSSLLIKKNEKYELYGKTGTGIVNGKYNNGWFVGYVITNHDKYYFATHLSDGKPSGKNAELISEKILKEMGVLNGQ

Regarding `N#Cc1ccc2nc(SCB(O)O)n(Cc3ccc(C(F)(F)F)cc3C(F)(F)F)c2c1` [Compound 4, (((1-(2,4-bis(trifluoro-methyl)benzyl)-6-cyano-1H-benzo[d]imidazol-2-yl)thio)methyl)boronic acid], the “potentiation of the activity of MEM by 4” value with MSSA and MRSA strains is listed as “lowering MICs to below resistant level”. In addition, the “% Inhibition of BlaR” value on BlaR was 98%. The “% Inhibition of bacterial growth” value in assay [1] is listed as 25%. Moreover, the “FIC, 4 with OXA, MEM, FOX, or CPT” value in the assay with additional MRSA strains was below 0.25. Besides, in the assay on strain NRS21, the “FIC index, 4 with FOX” value is reported as 0.25 and the “FIC index, 4 with OXA” value worked out at 0.19.

In the case of `C[C@@H](O)[C@H]1C(=O)N2C(C(=O)O)=C(S[C@@H]3CN[C@H](C(=O)N(C)C)C3)[C@H](C)[C@H]12` [MEM, meropenem], the “FIC index, 4 with MEM” value in the assay with HI049 turned out to be 0.19; in the assay with HFH29568, 0.09.
